Experimental data published in patent US20240000979A1, “METHODS AND COMPOSITIONS FOR SYNERGISTIC UPTAKE AND RETENTION OF SMALL MOLECULE LIGANDS” (CORNELL UNIVERSITY, priority 2020, published 2024).

Experiments:
[1] = test system: LNCaP tumors; assay: SPECT/CT imaging of radioactivity within tumors after injection; assay type: in vivo, mice; details: for activity concentration in tumor (imaging): mean of group, LNCaP tumors in mice
Experimental: In this animal study, three groups of mice were implanted with LNCaP tumors (in Matrigel) with 6-8 tumors per group. After the tumors were established, one group was injected with J591-Lu^177, a 2nd group with PSMA-617-Lu^177 and a 3rd group got both PSMA617-Lu^177 and J591-Lu^177.
Radiolabeling both PSMA-617 and J591 allowed both to be tracked individually as well as their total when combined. All mice were imaged in a Siemens Inveon dedicated animal multimodality SPECT/CT. Coaxial CT images were acquired for anatomical and attenuation information prior to each SPECT acquisition to measure the radioactivity within the tumors at the 1, 4, 24 and 72 hour time points after injection. SPECT images were reconstructed using the Siemens OSEM algorithm with corrections for scatter, attenuation, decay, and ^177Lu emission spectrum. The mean number of counts within the tumors in each group and time point was calculated and plotted. THe imaging data measured an activity concentration in Bq/mL of tumor: […]

[2] = test system: LNCaP tumors; assay: Tumor harvest at necropsy and direct scintillation counting of tumor radioactivity; assay type: in vivo, mice; details: Day 3 (72 hours) tumor harvest
Text: The dotted line represents the summation of the counts in the 617-Lu^177 plus the J591-Lu^177 tumors. […] To confirm the accuracy of this experiment which was based on […] imaging, determinations were done by tumor harvest at necropsy followed by direct counting of the radioactivity within the previously imaged tumors and calculating counts per mg of tumor.
At the Day 3 tumor harvest, the mean counts per mg tumor in each of the groups is shown in the table below (and FIG. 2) further confirming the imaging results.
In this animal study, which is a continuation of the imaging study described in Example 1, when the imaging was completed at 72 hours, the animals were necropsied, the tumors harvested, weighed and counted in a scintillation counter to derive the amount of radioactivity per mg (cpm/mg) of tumor. The tumors treated with J591-Lu^177 had 2.2-fold the counts of those tumors that had gotten PSMA-617-Lu^177 alone (FIG. 2). The tumors treated with the combination had counts 48% greater than the sum of each of its individual components, meeting the definition of synergy (FIG. 2). The physical counting of the tumor radioactivity confirmed the results obtained by imaging.

activity concentration in tumor (imaging) ([1]; 1 hr after injection): 29.55 Bq/mL
activity concentration in tumor (imaging) ([1]; 4 hr after injection): 30.62 Bq/mL
activity concentration in tumor (imaging) ([1]; 24 hr after injection): 27.1 Bq/mL
activity concentration in tumor (imaging) ([1]; 72 hr after injection): 12.48 Bq/mL
SMILES: O=C(O)CC[C@H](NC(=O)N[C@@H](CCCCNC(=O)[C@H](Cc1ccc2ccccc2c1)NC(=O)[C@H]1CC[C@H](CNC(=O)CN2CCN(CC(=O)O)CCN(CC(=O)O)CCN(CC(=O)O)CC2)CC1)C(=O)O)C(=O)O [PSMA-617-Lu^177]
course of tumor counts over time (imaging, in words) ([1]; 1 to 72 hour, LNCaP tumors): high uptake at 1 hour that then diminished over time
Mean cpm/mg tumor [2]: 7.536 cpm/mg
